Test results from article PMC5769417, “Single- and Multiple-Dose Trials to Determine the Pharmacokinetics, Safety, Tolerability, and Sex Effect of Oral Ginsenoside Compound K in Healthy Chinese Volunteers” (Frontiers in Pharmacology, 2018).

Experiments:
[1] = tested on: healthy Chinese volunteers; experiment: Multiple-dose trial, safety and tolerability (adverse events); assay type: in vivo, human
Procedure: Multiple-dose pharmacokinetics: The multiple-dose trial could be carried out on the condition that a single-dose of CK (25–800 mg) was safe and well tolerated in healthy Chinese volunteers. After breakfast, one of three doses (100, 200, or 400 mg) of CK or placebo were given to 36 eligible subjects randomized to each dose (male:female = 1:1), in which 10 were on active treatment and 2 were on matching placebo. CK were administered as a single dose on day 1 and then as repeated doses for 9 consecutive days (days 7–15 of the trial), and the drug was administered once-daily in the morning after meals.
Safety was evaluated by continuous observation of adverse events (AEs), monitoring of vital signs, ECG, hematology, biochemistry, and urinalysis at baseline, during the trials at the set time points following drug administration, and at follow-up visits after study completion. AEs were classified by their intensity into mild, moderate and severe. Additionally, the AEs were also classified according their relationship to the test drug as positive, probable, possible, remote, or unrelated. The severity of the AEs, as well as their relationship to test drug, was assessed by a qualified physician in the unit. Clinically relevant changes in vital signs, ECG and laboratory parameters were defined as marked abnormalities. ECG were recorded in the semisupine position after a rest of at least 5 min. It is worth noting that all the information, including symptoms and signs after dosing or the medications that the subjects were concomitantly taking must be recorded on the case-report form by investigators. All available data from subjects who received the test drug and placebo were included in the summaries of the safety data and were descriptively analyzed. In addition, the differences between laboratory parameters at baseline and after drug treatment were analyzed to determine whether there were clinical significances.
All the safety data, including vital signs, laboratory indexes and ECG, were descriptively analyzed, and the statistical analyses were conducted to evaluate the effects of the test drug by comparing the differences between before and after drug treatment, between the test drug group and the placebo group and among the different dose groups.

[2] = tested on: CYP2C9; set-up: method as in Xiao et al., 2016; details: human liver microsomes, human recombinant CYPs; ref Xiao et al., 2016; cited from earlier work
[3] = tested on: beagle dogs; details: cited from earlier work

## CC(C)=CCC[C@](C)(OC1O[C@H](CO)[C@@H](O)[C@H](O)[C@H]1O)[C@H]1CC[C@]2(C)[C@@H]1[C@H](O)C[C@@H]1[C@@]3(C)CC[C@H](O)C(C)(C)[C@@H]3CC[C@]12C (stereo partly drawn) [CK, 20-O-beta-D-glucopyranosyl-20(S)-protopanaxadiol]
[1]
  AEs positively relevant to CK: 20 cases
  AEs possibly related to CK: 14 cases
  AEs probably related to CK: 23 cases
[1]; 100 mg (n = 10)
  Alkaline phosphatase increased (study drug-related AE): 0 number of subjects (%)
  Any AEs (study drug-related): 7 (19.4) number of subjects (%)
  Bellyache (study drug-related AE): 0 number of subjects (%)
  Blood white cells increased (study drug-related AE): 0 number of subjects (%)
  Diarrhea (study drug-related AE): 3 (8.3) number of subjects (%)
  Direct bilirubin increased (study drug-related AE): 2 (5.6) number of subjects (%)
  Dizziness (study drug-related AE): 4 (11.1) number of subjects (%)
  Headache (study drug-related AE): 0 number of subjects (%)
  Loss of appetite (study drug-related AE): 2 (5.6) number of subjects (%)
  Nausea (study drug-related AE): 1 (2.8) number of subjects (%)
  Rash (study drug-related AE): 0 number of subjects (%)
  Subcutaneous bleeding (double forearm) (study drug-related AE): 0 number of subjects (%)
  Total bilirubin increased (study drug-related AE): 0 number of subjects (%)
[1]; 200 mg (n = 10)
  Alkaline phosphatase increased (study drug-related AE): 1 (2.8) number of subjects (%)
  Any AEs (study drug-related): 10 (27.8) number of subjects (%)
  Bellyache (study drug-related AE): 4 (11.1) number of subjects (%)
  Blood white cells increased (study drug-related AE): 0 number of subjects (%)
  Diarrhea (study drug-related AE): 9 (25) number of subjects (%)
  Direct bilirubin increased (study drug-related AE): 1 (2.8) number of subjects (%)
  Dizziness (study drug-related AE): 1 (2.8) number of subjects (%)
  Headache (study drug-related AE): 0 number of subjects (%)
  Loss of appetite (study drug-related AE): 0 number of subjects (%)
  Nausea (study drug-related AE): 0 number of subjects (%)
  Rash (study drug-related AE): 0 number of subjects (%)
  Subcutaneous bleeding (double forearm) (study drug-related AE): 0 number of subjects (%)
  Total bilirubin increased (study drug-related AE): 1 (2.8) number of subjects (%)
[1]; 400 mg (n = 10)
  Alkaline phosphatase increased (study drug-related AE): 0 number of subjects (%)
  Any AEs (study drug-related): 9 (25) number of subjects (%)
  Bellyache (study drug-related AE): 1 (2.8) number of subjects (%)
  Blood white cells increased (study drug-related AE): 0 number of subjects (%)
  Diarrhea (study drug-related AE): 9 (25) number of subjects (%)
  Direct bilirubin increased (study drug-related AE): 5 (13.9) number of subjects (%)
  Dizziness (study drug-related AE): 0 number of subjects (%)
  Headache (study drug-related AE): 0 number of subjects (%)
  Loss of appetite (study drug-related AE): 0 number of subjects (%)
  Nausea (study drug-related AE): 0 number of subjects (%)
  Rash (study drug-related AE): 0 number of subjects (%)
  Subcutaneous bleeding (double forearm) (study drug-related AE): 1 (2.8) number of subjects (%)
  Total bilirubin increased (study drug-related AE): 3 (8.3) number of subjects (%)
[2]
  inhibition of CYP2C9: moderate inhibitor
  substrate of CYP2C9: substrate
[3]
  No observed adverse effect level (NOAEL): 7.5 mg/kg
[3]; long-term toxicity test
  dose at which diarrhea symptom occurred: 75 mg/kg
